The target of this assay is T1, orexin 1 receptor (OX1R) (Homo sapiens, UniProt O43613).
T1 construct: gene HCRTR1
T1 sequence (O43613 1-425): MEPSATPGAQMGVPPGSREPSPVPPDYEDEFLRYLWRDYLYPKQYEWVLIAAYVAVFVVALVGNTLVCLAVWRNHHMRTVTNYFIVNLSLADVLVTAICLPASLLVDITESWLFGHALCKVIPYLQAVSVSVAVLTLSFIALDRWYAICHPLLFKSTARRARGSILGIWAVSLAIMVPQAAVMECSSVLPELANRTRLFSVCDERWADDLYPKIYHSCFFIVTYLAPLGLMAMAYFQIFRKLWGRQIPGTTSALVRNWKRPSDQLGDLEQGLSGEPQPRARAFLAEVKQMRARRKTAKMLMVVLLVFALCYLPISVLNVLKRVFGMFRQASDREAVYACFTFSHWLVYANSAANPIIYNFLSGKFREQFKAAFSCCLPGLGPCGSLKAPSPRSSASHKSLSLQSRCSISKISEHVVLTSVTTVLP
The assay can be described thus: […]orexin-A radioligand displacement on OX1R-CHO membranes; functional Ca2+ antagonism IC50 […]. The format is binding.

Structures are written as SMILES.

Consider one compound from article PMC8394412, “Identification and Characterization of Cannabidiol as an OX1R Antagonist by Computational and In Vitro Functional Validation” (Biomolecules, 2021).

Usually Ki stands for a measure of affinity in units of concentration, obtained from inhibition or displacement. In turn, `C=C(C)[C@@H]1CCC(C)=C[C@H]1c1c(O)cc(CCCCC)cc1O` [CBD, cannabidiol] had a Ki of 1580 ± 200 nM.
